Source: ChEMBL document CHEMBL5120817, “Quinone Derivatives as Promising Anti-Helicobacter pylori Agents from Aerial Parts of Mitracarpus hirtus” (2022)
In brackets after ≈: the same amount, converted by molar mass.

How the values were obtained:
Type in all cases: functional
Helicobacter pylori [1] = test: Antibacterial activity against multidrug resistant Helicobacter pylori G27 assessed as bacterial growth inhibition incubated for 3 days by broth microdilution method; conditions: G27, 72 h, time 3 day
Helicobacter pylori [2] = test: Antibacterial activity against multidrug resistant Helicobacter pylori HP159 assessed as bacterial growth inhibition incubated for 3 days by broth microdilution method; conditions: HP159, 72 h, time 3 day
Helicobacter pylori [3] = test: Antibacterial activity against multidrug resistant Helicobacter pylori JRES00015 assessed as bacterial growth inhibition incubated for 3 days by broth microdilution method; conditions: JRES00015, 72 h, time 3 day
Helicobacter pylori [4] = test: Potency index, ratio of metronidazole MIC to test compound MIC for antibacterial activity against multidrug resistant Helicobacter pylori JRES00015
Helicobacter pylori [5] = test: Antibiofilm activity against Helicobacter pylori G27 assessed as reduction in preformed bacterial biofilm at 4 times MIC by crystal violet staining based assay; design: scale not given: the % may be the effect or the level left
Helicobacter pylori [6] = test: Antibiofilm activity against Helicobacter pylori G27 assessed as reduction in viable bacteria within biofilms at 0.25 ug/ml incubated for 20 hrs by alamar blue assay; conditions: dose 0.25 µg/ml
Helicobacter pylori [7] = test: Antibiofilm activity against Helicobacter pylori G27 assessed as reduction in viable cells count at 4 times MIC

Question: How did the MIC (Helicobacter pylori [1]) turn out when `COc1ccc2c(c1)C(=O)c1cc(CO)ccc1C2=O` was run?
Answer: 8 µg/mL (≈ 29.8 µM)

Question: And the MIC (Helicobacter pylori [2])?
Answer: 8 µg/mL (≈ 29.8 µM)

Question: What about the MIC (Helicobacter pylori [3]) of the same compound?
Answer: 8 µg/mL (≈ 29.8 µM)

Question: Which results are given for `O=C1c2ccccc2C(=O)c2cnccc21`?
Answer: MIC (Helicobacter pylori [1]): 0.125 µg/mL (≈ 0.598 µM); MIC (Helicobacter pylori [2]): 0.0625 µg/mL (≈ 0.299 µM); MIC (Helicobacter pylori [3]): 0.0625 µg/mL (≈ 0.299 µM); Ratio (Helicobacter pylori [4]): 512; Activity (Helicobacter pylori [5]): 51%; Activity (Helicobacter pylori [6]): 100%; Activity (Helicobacter pylori [7]): 4.65 log10CFU/ml

Question: How did the MIC (Helicobacter pylori [1]) turn out when `CO[C@@H]1Cc2c(c(O[C@@H]3O[C@H](C)[C@@H](O)[C@H](O)[C@H]3O)c3ccccc3c2O[C@@H]2O[C@H](CO)[C@@H](O)[C@H](O)[C@H]2O)CO1` was run?
Answer: 64 µg/mL (≈ 115 µM)

Question: And the MIC (Helicobacter pylori [2])?
Answer: 64 µg/mL (≈ 115 µM)

Question: What about the MIC (Helicobacter pylori [3]) of the same compound?
Answer: 32 µg/mL (≈ 57.7 µM)

Question: Which results are given for `CO[C@H]1Cc2c(c(O[C@@H]3O[C@H](C)[C@@H](O)[C@H](O)[C@H]3O)c3ccccc3c2O[C@@H]2O[C@H](CO)[C@@H](O)[C@H](O)[C@H]2O)CO1`?
Answer: MIC (Helicobacter pylori [1]): > 64 µg/mL; MIC (Helicobacter pylori [2]): > 64 µg/mL; MIC (Helicobacter pylori [3]): > 64 µg/mL

Question: How did the MIC (Helicobacter pylori [1]) turn out when `CC[C@H]1OC(=O)[C@H](C)[C@@H](O[C@H]2C[C@@](C)(OC)[C@@H](O)[C@H](C)O2)[C@H](C)[C@@H](O[C@@H]2O[C@H](C)C[C@H](N(C)C)[C@H]2O)[C@](C)(OC)C[C@@H](C)C(=O)[C@H](C)[C@@H](O)[C@]1(C)O` [CLARITHROMYCIN] was run?
Answer: 0.008 µg/mL (≈ 0.0107 µM)

Question: And the MIC (Helicobacter pylori [2])?
Answer: 2 µg/mL (≈ 2.67 µM)

Question: What about the MIC (Helicobacter pylori [3]) of the same compound?
Answer: 2 µg/mL (≈ 2.67 µM)

Question: What does the source list for `CO[C@@H]1Cc2c(c(O[C@@H]3O[C@H](CO)[C@@H](O)[C@H](O)[C@H]3O)c3ccccc3c2O[C@@H]2O[C@H](CO)[C@@H](O)[C@H](O)[C@H]2O)CO1`?
Answer: MIC (Helicobacter pylori [1]): > 64 µg/mL; MIC (Helicobacter pylori [2]): > 64 µg/mL; MIC (Helicobacter pylori [3]): > 64 µg/mL

Question: `C[C@H]1COc2c(N3CCN(C)CC3)c(F)cc3c(=O)c(C(=O)O)cn1c23.C[C@H]1COc2c(N3CCN(C)CC3)c(F)cc3c(=O)c(C(=O)O)cn1c23.O` [LEVOFLOXACIN] was tested. Which MIC (Helicobacter pylori [1]) did it give?
Answer: 0.25 µg/mL

Question: And the MIC (Helicobacter pylori [2])?
Answer: 8 µg/mL

Question: What about the MIC (Helicobacter pylori [3]) of the same compound?
Answer: 16 µg/mL

Question: What does the source list for `C[C@H]1O[C@@H](Oc2c3c(c(O[C@@H]4O[C@H](CO)[C@@H](O)[C@H](O)[C@H]4O)c4ccccc24)C=COC3)[C@H](O)[C@@H](O)[C@@H]1O`?
Answer: MIC (Helicobacter pylori [1]): 32 µg/mL (≈ 61.2 µM); MIC (Helicobacter pylori [2]): 32 µg/mL (≈ 61.2 µM); MIC (Helicobacter pylori [3]): 32 µg/mL (≈ 61.2 µM)

Question: For `O=C(O)c1ccc2c(c1)C(=O)c1ccccc1C2=O`, which MIC (Helicobacter pylori [1]) is on record?
Answer: 0.5 µg/mL (≈ 1.98 µM)

Question: And the MIC (Helicobacter pylori [2])?
Answer: 1 µg/mL (≈ 3.96 µM)

Question: And the MIC (Helicobacter pylori [3])?
Answer: 0.25 µg/mL (≈ 0.991 µM)

Question: With `Cc1ccc2c(c1)C(=O)c1cc(O)c(O)cc1C2=O` as the compound, how does the MIC (Helicobacter pylori [1]) read?
Answer: 32 µg/mL (≈ 126 µM)

Question: What about the MIC (Helicobacter pylori [2]) of the same compound?
Answer: 32 µg/mL (≈ 126 µM)

Question: And the MIC (Helicobacter pylori [3])?
Answer: 32 µg/mL (≈ 126 µM)

Question: Which MIC (Helicobacter pylori [1]) does the source give for `OC[C@H]1O[C@@H](Oc2c3c(c(O[C@@H]4O[C@H](CO)[C@@H](O)[C@H](O)[C@H]4O)c4ccccc24)CC(O)OC3)[C@H](O)[C@@H](O)[C@@H]1O` (stereo not given in full) here?
Answer: > 64 µg/mL

Question: What about the MIC (Helicobacter pylori [2]) of the same compound?
Answer: > 64 µg/mL

Question: What about the MIC (Helicobacter pylori [3]) of the same compound?
Answer: > 64 µg/mL

Question: Which MIC (Helicobacter pylori [1]) does the source give for `COc1cc2c(cc1O)C(=O)c1cc(C)ccc1C2=O` here?
Answer: 16 µg/mL (≈ 59.6 µM)

Question: And the MIC (Helicobacter pylori [2])?
Answer: 8 µg/mL (≈ 29.8 µM)

Question: What about the MIC (Helicobacter pylori [3]) of the same compound?
Answer: 16 µg/mL (≈ 59.6 µM)

Question: With `COC(=O)c1ccc2c(c1)C(=O)c1cc(O)ccc1C2=O` as the compound, how does the MIC (Helicobacter pylori [1]) read?
Answer: 2 µg/mL (≈ 7.09 µM)

Question: And the MIC (Helicobacter pylori [2])?
Answer: 4 µg/mL (≈ 14.2 µM)

Question: And the MIC (Helicobacter pylori [3])?
Answer: 2 µg/mL (≈ 7.09 µM)

Question: `CO[C@H]1OCc2c(c(O[C@@H]3O[C@H](CO)[C@@H](O)[C@H](O)[C@H]3O)c3ccccc3c2O[C@@H]2O[C@H](C)[C@@H](O)[C@H](O)[C@H]2O)[C@@H]1O` was tested. Which MIC (Helicobacter pylori [1]) did it give?
Answer: 64 µg/mL (≈ 112 µM)

Question: What about the MIC (Helicobacter pylori [2]) of the same compound?
Answer: 64 µg/mL (≈ 112 µM)

Question: And the MIC (Helicobacter pylori [3])?
Answer: 32 µg/mL (≈ 56.1 µM)

Question: For `OC[C@H]1O[C@@H](Oc2c3c(c(O[C@@H]4O[C@H](CO)[C@@H](O)[C@H](O)[C@H]4O)c4ccccc24)COC=C3)[C@H](O)[C@@H](O)[C@@H]1O`, which MIC (Helicobacter pylori [1]) is on record?
Answer: 32 µg/mL (≈ 59.4 µM)

Question: And the MIC (Helicobacter pylori [2])?
Answer: 32 µg/mL (≈ 59.4 µM)

Question: What about the MIC (Helicobacter pylori [3]) of the same compound?
Answer: 32 µg/mL (≈ 59.4 µM)

Question: Which MIC (Helicobacter pylori [1]) does the source give for `C/C(=C/Cc1c(C(=O)O)c(O[C@@H]2O[C@H](CO)[C@@H](O)[C@H](O)[C@H]2O)c2ccccc2c1O[C@@H]1O[C@H](CO)[C@@H](O)[C@H](O)[C@H]1O)CO` here?
Answer: > 64 µg/mL

Question: And the MIC (Helicobacter pylori [2])?
Answer: > 64 µg/mL

Question: And the MIC (Helicobacter pylori [3])?
Answer: > 64 µg/mL

Question: Which MIC (Helicobacter pylori [1]) does the source give for `Cc1ncc([N+](=O)[O-])n1CCO` [METRONIDAZOLE] here?
Answer: 2 µg/mL (≈ 11.7 µM)

Question: What about the MIC (Helicobacter pylori [2]) of the same compound?
Answer: 16 µg/mL (≈ 93.5 µM)

Question: And the MIC (Helicobacter pylori [3])?
Answer: 32 µg/mL (≈ 187 µM)

Question: And the Activity (Helicobacter pylori [5])?
Answer: 33%

Question: And the Activity (Helicobacter pylori [7])?
Answer: 0.76 log10CFU/ml

Question: What does the source list for `Cc1ccc2c(c1)C(=O)c1cc(O)ccc1C2=O`?
Answer: MIC (Helicobacter pylori [1]): 8 µg/mL (≈ 33.6 µM); MIC (Helicobacter pylori [2]): 8 µg/mL (≈ 33.6 µM); MIC (Helicobacter pylori [3]): 16 µg/mL (≈ 67.2 µM)

Question: What does the source list for `O=C1C2=C(C(=O)c3ccccc31)C(O)OCC2` (stereo not given)?
Answer: MIC (Helicobacter pylori [1]): 0.125 µg/mL (≈ 0.543 µM); MIC (Helicobacter pylori [2]): 0.125 µg/mL (≈ 0.543 µM); MIC (Helicobacter pylori [3]): 0.0625 µg/mL (≈ 0.271 µM); Ratio (Helicobacter pylori [4]): 512

Question: `O=C1c2ccccc2C(=O)c2cc(CO)ccc21` was tested. Which MIC (Helicobacter pylori [1]) did it give?
Answer: 8 µg/mL (≈ 33.6 µM)

Question: And the MIC (Helicobacter pylori [2])?
Answer: 8 µg/mL (≈ 33.6 µM)

Question: What about the MIC (Helicobacter pylori [3]) of the same compound?
Answer: 8 µg/mL (≈ 33.6 µM)

Question: How did the MIC (Helicobacter pylori [1]) turn out when `CO[C@H]1Cc2c(c(O[C@@H]3O[C@H](CO)[C@@H](O)[C@H](O)[C@H]3O)c3ccccc3c2O[C@@H]2O[C@H](CO)[C@@H](O)[C@H](O)[C@H]2O)CO1` was run?
Answer: > 64 µg/mL

Question: What about the MIC (Helicobacter pylori [2]) of the same compound?
Answer: > 64 µg/mL

Question: And the MIC (Helicobacter pylori [3])?
Answer: > 64 µg/mL
